In assay [1] the test system is Staphylococcus aureus (ATCC 13709, a methicillin sensitive strain (MSSA)). Kind of assay: MIC, NCCLS broth microdilution assay. Type of assay: cell-based. The following applies: E = S. aureus ATCC 13709. The text has this:
(§1) In vitro biological activity data were collected for a variety of microorganisms, including Bacillus cereus (ATCC 11778), Staphylococcus aureus (ATCC 27660, a methicillin resistant strain (MRSA); ATCC 13709, a methicillin sensitive strain (MSSA)); Streptococcus pneumoniae (ATCC 51422, a penicillin resistant strain (PRSP)), Enterococcus faecium (ATCC 51559, a vancomycin resistant strain (VRE)), and Staphylococcus epidermidis (ATCC 12228). Additionally, antifungal activity data were collected for Candida albicans (ATCC 38247).
(§2) Compounds according to this invention were screened for their in vitro activities against selected species of bacteria and fungi. The minimal inhibition concentration (MIC) of these compounds was determined using the National Committee for Clinical Laboratory Standards (NCCLS) broth microdilution assay in microtiter plates, as set forth in: (1) the guidelines of the National. Committee for Clinical Laboratory Standards (NCCLS) Document M7-A4 (NCCLS, 1997); (2) the guidelines of the National Committee for Clinical Laboratory Standards (NCCLS) Document M11-A4 (NCCLS, 1997); and (3) the guidelines and reference method of the National Committee for Clinical Laboratory Standards (NCCLS) Document M27-T (NCCLS, 1995). For antifungal assays, the method recommended in Murray, P R., 1995 Manual of Clinical Microbiology (ASM Press, Washington, D.C.), was employed.
A general note: In broth dilution the organism is exposed to a series of concentrations in liquid medium.

For assay [2], the system named is Bacillus cereus (ATCC 11778). Description: MIC, NCCLS broth microdilution assay. Type of assay: cell-based. Particulars: A = B. cereus ATCC 11778.
Description: as §1, §2

Assay [3] relates to Staphylococcus aureus (ATCC 27660, a methicillin resistant strain (MRSA)). Description: MIC, NCCLS broth microdilution assay. Type of assay: cell-based. The following applies: F = S. aureus ATCC 27660.
Description: as §1, §2

In another assay the test system is E. faecalis ATCC 29212. Kind of assay: MIC, NCCLS broth microdilution assay. Type of assay: cell-based, Enterococcus faecalis. Particulars: C = E. faecalis ATCC 29212. Here is the method: as §2
Assay [4] has as its system Candida albicans (ATCC 38247). Kind of assay: Antifungal MIC assay. Type of assay: cell-based. Particulars: B = C. albicans ATCC 38247.
Description: as §1, §2

A further assay deals with S. pneumoniae ATCC 49619. Description: MIC, NCCLS broth microdilution assay. Type of assay: cell-based, Streptococcus pneumoniae. Particulars: H = S. pneumoniae ATCC 49619. The procedure: as §2

With `Cn1cc(NC(=O)c2cc(NC(=O)c3cc(NC(=O)c4ccc(Cl)cc4F)c[nH]3)cn2C)cc1C(=O)NCCN1CCSC1` [Compound A-29], the “Minimum Inhibitory Concentration (MIC)” value in assay [1] was “+++ (+++ = MIC ≦ 4)”; in assay [2], “+++ (+++ = MIC ≦ 4)”; in assay [3], “++ (++ = 4 < MIC < 12)”; with E. faecalis ATCC 29212 it was “+ (+ = 12 ≦ MIC ≦ 32)”; in assay [4], above 32 µg/mL; in the assay on S. pneumoniae ATCC 49619 it was “+++ (+++ = MIC ≦ 4)”.
Consider `Cn1cc(NC(=O)c2cc(NC(=O)c3cc(NC(=O)c4ccc(Cl)c(Cl)c4)c[nH]3)cn2C)cc1C(=O)NCCN1CCOCC1` [Compound A-30], for which the “Minimum Inhibitory Concentration (MIC)” value was “+++ (+++ = MIC ≦ 4)” in assay [1]; “+++ (+++ = MIC ≦ 4)” in assay [2]; “+++ (+++ = MIC ≦ 4)” in assay [3]; “+++ (+++ = MIC ≦ 4)” with E. faecalis ATCC 29212; above 32 µg/mL in assay [4]; “+++ (+++ = MIC ≦ 4)” with S. pneumoniae ATCC 49619.
For the molecule `Cn1cc(NC(=O)c2cc(NC(=O)c3cc(NC(=O)c4ccc(F)cc4F)cn3C)cn2C)cc1C(=O)NCCCN1CCCCC1` [Compound B-4], the “Minimum Inhibitory Concentration (MIC)” value in assay [1] is “++ (++ = 4 < MIC < 12)”; in assay [2], “++ (++ = 4 < MIC < 12)”; in assay [3] it was “++ (++ = 4 < MIC < 12)”; with E. faecalis ATCC 29212, “++ (++ = 4 < MIC < 12)”; in assay [4], above 32 µg/mL; with S. pneumoniae ATCC 49619 it was “++ (++ = 4 < MIC < 12)”.
Turning to `Cn1cc(NC(=O)c2cc(NC(=O)c3cc(NC(=O)c4ccc(F)cc4F)cn3C)cn2C)cc1C(=O)NCCN1CCCC1` [Compound B-5], the “Minimum Inhibitory Concentration (MIC)” value is “+++ (+++ = MIC ≦ 4)” in assay [1]; “+++ (+++ = MIC ≦ 4)” in assay [2]; “+++ (+++ = MIC ≦ 4)” in assay [3]; “+++ (+++ = MIC ≦ 4)” in the assay on E. faecalis ATCC 29212; above 32 µg/mL in assay [4]; “+++ (+++ = MIC ≦ 4)” in the assay on S. pneumoniae ATCC 49619.
`Cn1cc(NC(=O)c2cc(NC(=O)c3cc(NC(=O)c4ccc(F)cc4F)cn3C)cn2C)cc1C(=O)NCCCNC1CCCCC1` [Compound B-7]: the “Minimum Inhibitory Concentration (MIC)” value in assay [1] was “+++ (+++ = MIC ≦ 4)”; in assay [2], “+++ (+++ = MIC ≦ 4)”; in assay [3] it was “+++ (+++ = MIC ≦ 4)”; with E. faecalis ATCC 29212, “+++ (+++ = MIC ≦ 4)”; in assay [4], above 32 µg/mL; in the assay on S. pneumoniae ATCC 49619, “+++ (+++ = MIC ≦ 4)”.
Turning to `Cn1cc(NC(=O)c2cc(NC(=O)c3cc(NC(=O)c4ccc(F)cc4F)cn3C)cn2C)cc1C(=O)NCCCN1CCOCC1` [Compound B-8], the “Minimum Inhibitory Concentration (MIC)” value in assay [1] is “++ (++ = 4 < MIC < 12)”; in assay [2] it was “++ (++ = 4 < MIC < 12)”; in assay [3], “++ (++ = 4 < MIC < 12)”; with E. faecalis ATCC 29212, “++ (++ = 4 < MIC < 12)”; in assay [4], above 32 µg/mL; in the assay with S. pneumoniae ATCC 49619 it was “++ (++ = 4 < MIC < 12)”.
In the case of `Cn1cc(NC(=O)c2ccc(F)cc2F)cc1C(=O)Nc1cc(C(=O)Nc2cc(C(=O)OCCN3CCCCC3)n(C)c2)n(C)c1` [Compound B-9], the “Minimum Inhibitory Concentration (MIC)” value was “+++ (+++ = MIC ≦ 4)” in assay [1]; “+++ (+++ = MIC ≦ 4)” in assay [2]; “+++ (+++ = MIC ≦ 4)” in assay [3]; “+++ (+++ = MIC ≦ 4)” with E. faecalis ATCC 29212; above 32 µg/mL in assay [4]; “+++ (+++ = MIC ≦ 4)” in the assay with S. pneumoniae ATCC 49619.
In the case of `Cn1cc(NC(=O)c2ccc(F)cc2F)cc1C(=O)Nc1cc(C(=O)Nc2cc(C(=O)OCCN3CCOCC3)n(C)c2)n(C)c1` [Compound B-10], the “Minimum Inhibitory Concentration (MIC)” value in assay [1] is “+ (+ = 12 ≦ MIC ≦ 32)”; in assay [2] it was “+++ (+++ = MIC ≦ 4)”; in assay [3] it was “+ (+ = 12 ≦ MIC ≦ 32)”; with E. faecalis ATCC 29212, “+++ (+++ = MIC ≦ 4)”; in assay [4], above 32 µg/mL; with S. pneumoniae ATCC 49619, “+++ (+++ = MIC ≦ 4)”.
For `C[C@@H]1CN(CCNC(=O)c2cc(NC(=O)c3cc(NC(=O)c4ccc(F)cc4F)cn3C)cn2C)C[C@H](C)O1` [Compound B-12], the “Minimum Inhibitory Concentration (MIC)” value in assay [1] is “++ (++ = 4 < MIC < 12)”; in assay [2] it was “+++ (+++ = MIC ≦ 4)”; in assay [3], “+++ (+++ = MIC ≦ 4)”; in the assay with E. faecalis ATCC 29212, “+++ (+++ = MIC ≦ 4)”; in assay [4], above 32 µg/mL; in the assay on S. pneumoniae ATCC 49619 it was “+++ (+++ = MIC ≦ 4)”.
Turning to `CCN(CC)CCNC(=O)c1cc(NC(=O)c2cc(NC(=O)c3ccc(F)cc3F)cn2C)cn1C` [Compound B-13], the “Minimum Inhibitory Concentration (MIC)” value in assay [1] was “++ (++ = 4 < MIC < 12)”; in assay [2] it was “+ (+ = 12 ≦ MIC ≦ 32)”; in assay [3], “+ (+ = 12 ≦ MIC ≦ 32)”; in the assay on E. faecalis ATCC 29212, “++ (++ = 4 < MIC < 12)”; in assay [4], above 32 µg/mL; with S. pneumoniae ATCC 49619, “+++ (+++ = MIC ≦ 4)”.
Turning to `Cn1cc(NC(=O)c2cc(NC(=O)c3ccc(F)cc3F)cn2C)cc1C(=O)NCCN1CCCCC1` [Compound B-14], the “Minimum Inhibitory Concentration (MIC)” value in assay [1] is “+++ (+++ = MIC ≦ 4)”; in assay [2] it was “++ (++ = 4 < MIC < 12)”; in assay [3] it was “+++ (+++ = MIC ≦ 4)”; in the assay with E. faecalis ATCC 29212 it was “+++ (+++ = MIC ≦ 4)”; in assay [4] it was above 32 µg/mL; in the assay on S. pneumoniae ATCC 49619, “+++ (+++ = MIC ≦ 4)”.
With `CN(C)CC(C)(C)CNC(=O)c1cc(NC(=O)c2cc(NC(=O)c3ccc(F)cc3F)cn2C)cn1C` [Compound B-15], the “Minimum Inhibitory Concentration (MIC)” value in assay [1] is above 32 µg/mL; in assay [2], above 32 µg/mL; in assay [3], above 32 µg/mL; with E. faecalis ATCC 29212 it was above 32 µg/mL; in assay [4], above 32 µg/mL; in the assay with S. pneumoniae ATCC 49619 it was “+ (+ = 12 ≦ MIC ≦ 32)”.
Consider `Cn1cc(NC(=O)c2cc(NC(=O)c3ccc(F)cc3F)cn2C)cc1C(=O)NCCN1CCCC1` [Compound B-16], for which the “Minimum Inhibitory Concentration (MIC)” value is “++ (++ = 4 < MIC < 12)” in assay [1]; “++ (++ = 4 < MIC < 12)” in assay [2]; “++ (++ = 4 < MIC < 12)” in assay [3]; “+++ (+++ = MIC ≦ 4)” in the assay with E. faecalis ATCC 29212; above 32 µg/mL in assay [4]; “+++ (+++ = MIC ≦ 4)” in the assay with S. pneumoniae ATCC 49619.
Take `Cn1cc(NC(=O)c2cc(NC(=O)c3cc(NC(=O)c4ccc(F)cc4F)cn3C)cn2C)cc1C(=O)NCCc1cccc[n+]1C` [Compound B-17]: the “Minimum Inhibitory Concentration (MIC)” value is “++ (++ = 4 < MIC < 12)” in assay [1]; “+++ (+++ = MIC ≦ 4)” in assay [2]; “++ (++ = 4 < MIC < 12)” in assay [3]; “+ (+ = 12 ≦ MIC ≦ 32)” in the assay on E. faecalis ATCC 29212; above 32 µg/mL in assay [4]; “++ (++ = 4 < MIC < 12)” with S. pneumoniae ATCC 49619.
For `Cn1cc(NC(=O)c2cc(NC(=O)c3cc(NC(=O)c4ccc(F)cc4F)cn3C)cn2C)cc1C(=O)NCCN1CCC(O)CC1` [Compound B-19], the “Minimum Inhibitory Concentration (MIC)” value was “+++ (+++ = MIC ≦ 4)” in assay [1]; “+++ (+++ = MIC ≦ 4)” in assay [2]; “+++ (+++ = MIC ≦ 4)” in assay [3]; “+++ (+++ = MIC ≦ 4)” in the assay on E. faecalis ATCC 29212; above 32 µg/mL in assay [4]; “+++ (+++ = MIC ≦ 4)” in the assay on S. pneumoniae ATCC 49619.
`C[C@@H]1CCC[C@H](C)N1CCNC(=O)c1cc(NC(=O)c2cc(NC(=O)c3cc(NC(=O)c4ccc(F)cc4F)cn3C)cn2C)cn1C` [Compound B-20]: the “Minimum Inhibitory Concentration (MIC)” value is “+++ (+++ = MIC ≦ 4)” in assay [1]; “+++ (+++ = MIC ≦ 4)” in assay [2]; “++ (++ = 4 < MIC < 12)” in assay [3]; “+ (+ = 12 ≦ MIC ≦ 32)” with E. faecalis ATCC 29212; above 32 µg/mL in assay [4]; “+++ (+++ = MIC ≦ 4)” with S. pneumoniae ATCC 49619.

The record behind these values is patent US7348427B2, “Antipathogenic benzamide compounds” (Genesoft Pharmaceuticals, Inc., priority 2001, dated 2008).
